As a reminder, the melting point is the temperature of the solid-liquid transition.

`CC(C)c1cccc(C(C)C)c1NC(=O)CCCCCNc1nc2cccnc2o1` [Example 20, 6-(oxazolo[5,4-b]pyridin-2-ylamino)-N-(2,6-diisopropylphenyl)hexanamide] returned a melting point of 177 to 178 °C.
The figure for `CC(C)c1cccc(C(C)C)c1NC(=O)CCCCCSc1nc2cccnc2s1` [Example 21, 6-(thiazolo[5,4-b]pyridin-2-ylthio)-N-(2,6-diisopropylphenyl)hexanamide] is 137 to 138 °C; for `COC(=O)c1ccc2nc(SCCCCCC(=O)Nc3c(C(C)C)cccc3C(C)C)oc2c1` [Example 40, 6-(6-methoxycarbonylbenzoxazol-2-ylthio)-N-(2,6-diisopropylphenyl)hexanamide] it is 157 to 158 °C; for `CC(C)c1cccc(C(C)C)c1NC(=O)CCCCCSc1nc2ccc(CO)cc2o1` [Example 42, 6-(6-hydroxymethylbenzoxazol-2-ylthio)-N-(2,6-diisopropylphenyl)hexanamide] it is 93 to 95 °C.
For `CC(C)c1cccc(C(C)C)c1NC(=O)CCCCCSc1nc2ccc(CN(C)C)cc2o1` [Example 43, 6-[6-(N,N-dimethylaminomethyl)benzoxazol-2-ylthio]-N-(2,6-diisopropylphenyl)hexanamide] the value was 82 to 84 °C; for `CC(C)c1cccc(C(C)C)c1NC(=O)CCCCCSc1nc2cccc(C(=O)O)c2o1` [Example 47, 6-(7-carboxybenzoxazol-2-ylthio)-N-(2,6-diisopropylphenyl)hexanamide], 175 to 177 °C.
The figure for `CC(C)c1cccc(C(C)C)c1NC(=O)CCCCCSc1nc2cccc(CO)c2o1` [Example 48, 6-[7-hydroxymethylbenzoxazol-2-ylthio]-N-(2,6-diisopropylphenyl)hexanamide] is 91 to 92 °C; for `CC(C)c1cccc(C(C)C)c1NC(=O)CCCCCSc1nc2cccc(CN(C)C)c2o1` [Example 49, 6-[7-(N,N-dimethylaminomethyl)benzoxazol-2-ylthio]-N-(2,6-diisopropylphenyl)hexanamide] it is 102 to 104 °C.
`CC(C)c1cccc(C(C)C)c1NC(=O)CCCCCSc1nc2cccc(N(C)C)c2o1` [Example 50, 6-(7-N,N-dimethylaminobenzoxazol-2-ylthio)-N-(2,6-diisopropylphenyl)hexanamide] yielded a melting point of 129 to 130 °C.
The figure for `CC(C)c1cccc(C(C)C)c1NC(=O)CCCCCSc1nc2cccc(CN3CCOCC3)c2o1` [Example 51, 6-[7-(1-morpholino)methylbenzoxazol-2-ylthio]-N-(2,6-diisopropylphenyl)hexanamide] is 117 to 118 °C.
For `CC(C)c1cccc(C(C)C)c1NC(=O)CCCCCSc1nc2cccc(-c3nnn[nH]3)c2o1` [Example 52, 6-[7-(tetrazol-5-yl)benzoxazol-2-ylthio)-N-(2,6-diisopropylphenyl)hexanamide] the value was 218 to 220 °C; for `COC(=O)c1ccc2nc(SCCCCCCCCC(=O)Nc3c(C(C)C)cccc3C(C)C)oc2c1` [Example 54, 9-(6-methoxycarbonylbenzoxazol-2-ylthio)-N-(2,6-diisopropylphenyl)nonanamide], 122 to 124 °C; for `COC(=O)c1cccc2nc(SCCCCCCCNC(=O)Nc3c(C(C)C)cccc3C(C)C)oc12` [Example 55, N-(2,6-diisopropylphenyl)-N′-[7-(7-methoxycarbonylbenzoxazol-2-ylthio)heptyl]urea], 179 to 181 °C.
For `COC(=O)c1cccc2nc([S+]([O-])CCCCCCCNC(=O)Nc3c(C(C)C)cccc3C(C)C)oc12` (centres unmarked) [Example 56, N-(2,6-diisopropylphenyl)-N′-[7-(7-methoxycarbonylbenzoxazol-2-ylsulfinyl)heptyl]urea] the value was 145 to 147 °C.
Take `COC(=O)c1cccc2nc(SCCCCCC(=O)Nc3c(OC)cc(OC)cc3OC)oc12` [Example 62, 6-(7-methoxycarbonylbenzoxazol-2-ylthio)-N-(2,4,6-trimethoxyphenyl)hexanamide]: the melting point lay within 136 to 138 °C.
The figure for `COC(=O)c1ccc2nc(SCCCCCC(=O)Nc3c(C(C)C)cccc3C(C)C)[nH]c2c1` [Example 63, 6-(5-methoxycarbonylbenzimidazol-2-ylthio)-N-(2,6-diisopropylphenyl)hexanamide] is 190 to 192 °C.
The figure for `CC(C)c1cccc(C(C)C)c1NC(=O)CCCCCSc1ncc[nH]1` [Example 68, 6-(imidazol-2-ylthio)-N-(2,6-diisopropylphenyl)hexanamide] is 190 to 191 °C; for `CC(C)c1cccc(C(C)C)c1NC(=O)CCCCCSc1nc2cccc(C(F)(F)F)c2o1` [Example 74, 6-(7-trifluoromethylbenzoxazol-2-ylthio)-N-(2,6-diisopropylphenyl)hexanamide] it is 130 °C.
The figure for `CCOC(=O)c1cccc2nc(SCCCCCC(=O)Nc3c(C(C)C)cccc3C(C)C)oc12` [Example 79, 6-(7-ethoxycarbonylbenzoxazol-2-ylthio)-N-(2,6-diisopropylphenyl)hexanamide] is 114 to 116 °C; for `COC(=O)c1c(O)ccc2nc(SCCCCCC(=O)Nc3c(C(C)C)cccc3C(C)C)oc12` [Example 91, 6-[6-hydroxy-7-methoxycarbonylbenzoxazol-2-ylthio)-N-(2,6-diisopropylphenyl)hexanamide] it is 155 to 156 °C.

The record behind these values is US6362208B1, “Anilide compounds and drugs containing the same” (Kowa Company, Ltd., priority 1997, dated 2002).
